In one assay the test system is BT-474 cells. Nature of the assay: In vitro cell proliferation assay (Cell Titer-Glo), BT-474. Type of assay: cell-based, human. Conditions: BT-474, 0.0001 ug/ml to 10 ug/ml, 72 h (FIGS. 7A, 8A). On the procedure:
(§1) BT-474 and BT-474EE1 cells were plated in 96-well microtiter plates and incubated overnight at 37° in a humidified atmosphere of 5% CO2. […] After incubation for 72 h, Cell Titer-Glo reagent (Promega, Madison, Wis.) was added to the wells, and after a 10-min incubation at room temperature, the luminescent signal was recorded.
(In general: In ATP-based viability assays light output follows the ATP content of the culture.)

For another assay, the system named is BT-474EEI cells. Nature of the assay: In vitro cell proliferation assay (Cell Titer-Glo), BT-474EEI. In kind it is cell-based, human. The note with it: 0.0001 ug/ml to 10 ug/ml, 72 h (FIGS. 7B, 8B). On the procedure: as §1

SMILES strings stand for the structures.

Take `C#Cc1cccc(Nc2ncnc3cc(OCCOC)c(OCCOC)cc23)c1` [Tarceva, Erlotinib]: the cell proliferation entry in the assay with BT-474 cells is on record as “decreased with high doses”; with BT-474EEI cells, “reduced at high concentrations”.

Source of the values: US20090098115A1, “Cell lines and animal models of HER2 expressing tumors” (priority 2006, published 2009).
